{"source": "ChEMBL document CHEMBL5046315", "about": "“CRCM5484: A BET-BDII Selective Compound with Differential Anti-leukemic Drug Modulation” (J Med Chem, 2022)", "key": {"MOLM-14 [1]": {"tested_on": "MOLM-14", "test": "Potentiation of rigosertib-induced antileukemic activity against human MOLM-14 cells at 4.3 uM in presence of bone-marrow derived stromal cell-conditioned medium", "format": "functional, cell-based"}, "U-937 [2]": {"tested_on": "U-937", "test": "Potentiation of VX680-induced antileukemic activity against human U-937 cells at 4.3 uM in presence of bone-marrow derived stromal cell-conditioned medium", "format": "functional, cell-based"}, "MOLM-14 [3]": {"tested_on": "MOLM-14", "test": "Potentiation of AraC-induced antileukemic activity against human MOLM-14 cells at 4.3 uM in presence of bone-marrow derived stromal cell-conditioned medium", "format": "functional, cell-based"}, "MOLM-14 [4]": {"tested_on": "MOLM-14", "test": "Potentiation of olaparid-induced antileukemic activity against human MOLM-14 cells at 4.3 uM in presence of bone-marrow derived stromal cell-conditioned medium", "format": "functional, cell-based"}, "CCRF-CEM [5]": {"tested_on": "CCRF-CEM", "test": "Potentiation of arsenic-induced antileukemic activity against human CCRF-CEM cells at 4.3 uM in presence of bone-marrow derived stromal cell-conditioned medium", "format": "functional, cell-based"}, "U-937 [6]": {"tested_on": "U-937", "test": "Potentiation of bleomycine-induced antileukemic activity against human U-937 cells at 4.3 uM in presence of bone-marrow derived stromal cell-conditioned medium", "format": "functional, cell-based"}, "K562": {"tested_on": "K562", "test": "Cytotoxicity against human K562 cells assessed as reduction in cell viability incubated for 72 hrs", "format": "functional, cell-based", "conditions": "K562, 72 h"}, "U-937 [7]": {"tested_on": "U-937", "test": "Potentiation of dasatinib-induced antileukemic activity against human U-937 cells at 4.3 uM in presence of bone-marrow derived stromal cell-conditioned medium", "format": "functional, cell-based"}, "[8]": {"target": "T1, Bromodomain-containing protein 2 (Homo sapiens, UniProt P25440)", "test": "Inhibition of human partial length BRD2-BD2 (E348 to D455 residues) expressed in bacterial system at 1 uM by BROMOscan method relative to control"}, "MOLM-14 [9]": {"tested_on": "MOLM-14", "test": "Potentiation of AC-4-130-induced antileukemic activity against human MOLM-14 cells at 4.3 uM in presence of bone-marrow derived stromal cell-conditioned medium", "format": "functional, cell-based"}, "MOLM-14 [10]": {"tested_on": "MOLM-14", "test": "Potentiation of GSK2879552-induced antileukemic activity against human MOLM-14 cells at 4.3 uM in presence of bone-marrow derived stromal cell-conditioned medium", "format": "functional, cell-based"}, "U-937 [11]": {"tested_on": "U-937", "test": "Potentiation of cladribine-induced antileukemic activity against human U-937 cells at 4.3 uM in presence of bone-marrow derived stromal cell-conditioned medium", "format": "functional, cell-based"}, "CCRF-CEM [12]": {"tested_on": "CCRF-CEM", "test": "Cytotoxicity against human CCRF-CEM cells assessed as reduction in cell viability incubated for 72 hrs", "format": "functional, cell-based"}, "MOLM-14 [13]": {"tested_on": "MOLM-14", "test": "Potentiation of etoposide-induced antileukemic activity against human MOLM-14 cells at 4.3 uM in presence of bone-marrow derived stromal cell-conditioned medium", "format": "functional, cell-based"}, "MOLM-14 [14]": {"tested_on": "MOLM-14", "test": "Potentiation of entinostat-induced antileukemic activity against human MOLM-14 cells at 4.3 uM in presence of bone-marrow derived stromal cell-conditioned medium", "format": "functional, cell-based"}, "MOLM-14 [15]": {"tested_on": "MOLM-14", "test": "Potentiation of midostaurin-induced antileukemic activity against human MOLM-14 cells at 4.3 uM in presence of bone-marrow derived stromal cell-conditioned medium", "format": "functional, cell-based"}, "U-937 [16]": {"tested_on": "U-937", "test": "Potentiation of EPZ5676-induced antileukemic activity against human U-937 cells at 4.3 uM in presence of bone-marrow derived stromal cell-conditioned medium", "format": "functional, cell-based"}, "MOLM-14 [17]": {"tested_on": "MOLM-14", "test": "Potentiation of ruxolitinib-induced antileukemic activity against human MOLM-14 cells at 4.3 uM in presence of bone-marrow derived stromal cell-conditioned medium", "format": "functional, cell-based"}, "MOLM-14 [18]": {"tested_on": "MOLM-14", "test": "Potentiation of palbociclib-induced antileukemic activity against human MOLM-14 cells at 4.3 uM in presence of bone-marrow derived stromal cell-conditioned medium", "format": "functional, cell-based"}, "MOLM-14 [19]": {"tested_on": "MOLM-14", "test": "Potentiation of EPZ5676-induced antileukemic activity against human MOLM-14 cells at 4.3 uM in presence of bone-marrow derived stromal cell-conditioned medium", "format": "functional, cell-based"}, "U-937 [20]": {"tested_on": "U-937", "test": "Potentiation of entinostat-induced antileukemic activity against human U-937 cells at 4.3 uM in presence of bone-marrow derived stromal cell-conditioned medium", "format": "functional, cell-based"}, "CCRF-CEM [21]": {"tested_on": "CCRF-CEM", "test": "Potentiation of OTX015-induced antileukemic activity against human CCRF-CEM cells at 4.3 uM in presence of bone-marrow derived stromal cell-conditioned medium", "format": "functional, cell-based"}, "U-937 [22]": {"tested_on": "U-937", "test": "Potentiation of prima1-induced antileukemic activity against human U-937 cells at 4.3 uM in presence of bone-marrow derived stromal cell-conditioned medium", "format": "functional, cell-based"}, "CCRF-CEM [23]": {"tested_on": "CCRF-CEM", "test": "Potentiation of gefitinib-induced antileukemic activity against human CCRF-CEM cells at 4.3 uM in presence of bone-marrow derived stromal cell-conditioned medium", "format": "functional, cell-based"}, "CCRF-CEM [24]": {"tested_on": "CCRF-CEM", "test": "Potentiation of prima1-induced antileukemic activity against human CCRF-CEM cells at 4.3 uM in presence of bone-marrow derived stromal cell-conditioned medium", "format": "functional, cell-based"}, "[25]": {"target": "Bromodomain-containing protein 3 (Homo sapiens, UniProt Q15059)", "sequence (Q15059 whole entry, the tested form may be a part)": "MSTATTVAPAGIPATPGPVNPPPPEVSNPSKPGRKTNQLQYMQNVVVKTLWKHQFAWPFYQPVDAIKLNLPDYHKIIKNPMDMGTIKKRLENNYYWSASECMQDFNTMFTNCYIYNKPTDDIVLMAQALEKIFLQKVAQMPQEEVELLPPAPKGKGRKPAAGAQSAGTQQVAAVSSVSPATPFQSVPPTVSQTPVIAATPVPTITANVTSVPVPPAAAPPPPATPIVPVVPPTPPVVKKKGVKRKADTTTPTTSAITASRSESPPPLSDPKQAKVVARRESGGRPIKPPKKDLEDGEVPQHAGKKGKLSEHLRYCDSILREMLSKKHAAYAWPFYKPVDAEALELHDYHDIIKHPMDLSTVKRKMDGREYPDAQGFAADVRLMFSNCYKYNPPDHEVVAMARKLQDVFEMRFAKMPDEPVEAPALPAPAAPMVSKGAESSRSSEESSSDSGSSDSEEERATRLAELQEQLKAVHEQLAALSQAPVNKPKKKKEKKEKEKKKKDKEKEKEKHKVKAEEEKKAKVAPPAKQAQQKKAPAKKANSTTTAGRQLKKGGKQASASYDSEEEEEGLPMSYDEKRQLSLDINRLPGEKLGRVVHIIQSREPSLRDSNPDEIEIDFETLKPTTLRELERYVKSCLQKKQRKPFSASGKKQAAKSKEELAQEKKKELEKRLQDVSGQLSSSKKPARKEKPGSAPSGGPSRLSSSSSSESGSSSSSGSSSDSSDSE", "test": "Inhibition of BRD3-BD1 domain (unknown origin) incubated for 6 hrs by HTRF method"}, "MOLM-14 [26]": {"tested_on": "MOLM-14", "test": "Potentiation of selinexor-induced antileukemic activity against human MOLM-14 cells at 4.3 uM in presence of bone-marrow derived stromal cell-conditioned medium", "format": "functional, cell-based"}, "U-937 [27]": {"tested_on": "U-937", "test": "Potentiation of daunorubicine-induced antileukemic activity against human U-937 cells at 4.3 uM in presence of bone-marrow derived stromal cell-conditioned medium", "format": "functional, cell-based"}, "U-937 [28]": {"tested_on": "U-937", "test": "Potentiation of gileritinib-induced antileukemic activity against human U-937 cells at 4.3 uM in presence of bone-marrow derived stromal cell-conditioned medium", "format": "functional, cell-based"}, "[29]": {"target": "Bromodomain-containing protein 4 (Homo sapiens, UniProt O60885)", "test": "Inhibition of BRD4-BD2 (unknown origin) incubated for 6 hrs by HTRF method"}, "[30]": {"target": "T1, Bromodomain-containing protein 2", "test": "Inhibition of BRD2-BD2 (unknown origin) incubated for 6 hrs by HTRF method"}, "CCRF-CEM [31]": {"tested_on": "CCRF-CEM", "test": "Potentiation of asparaginase-induced antileukemic activity against human CCRF-CEM cells at 4.3 uM in presence of bone-marrow derived stromal cell-conditioned medium", "format": "functional, cell-based"}, "MOLM-14 [32]": {"tested_on": "MOLM-14", "test": "Potentiation of everolimus-induced antileukemic activity against human MOLM-14 cells at 4.3 uM in presence of bone-marrow derived stromal cell-conditioned medium", "format": "functional, cell-based"}, "U-937 [33]": {"tested_on": "U-937", "test": "Potentiation of selinexor-induced antileukemic activity against human U-937 cells at 4.3 uM in presence of bone-marrow derived stromal cell-conditioned medium", "format": "functional, cell-based"}, "U-937 [34]": {"tested_on": "U-937", "test": "Potentiation of AC-4-130-induced antileukemic activity against human U-937 cells at 4.3 uM in presence of bone-marrow derived stromal cell-conditioned medium", "format": "functional, cell-based"}, "U-937 [35]": {"tested_on": "U-937", "test": "Potentiation of idarubicin-induced antileukemic activity against human U-937 cells at 4.3 uM in presence of bone-marrow derived stromal cell-conditioned medium", "format": "functional, cell-based"}, "U-937 [36]": {"tested_on": "U-937", "test": "Potentiation of volasertib-induced antileukemic activity against human U-937 cells at 4.3 uM in presence of bone-marrow derived stromal cell-conditioned medium", "format": "functional, cell-based"}, "MOLM-14 [37]": {"tested_on": "MOLM-14", "test": "Potentiation of luminespid-induced antileukemic activity against human MOLM-14 cells at 4.3 uM in presence of bone-marrow derived stromal cell-conditioned medium", "format": "functional, cell-based"}, "U-937 [38]": {"tested_on": "U-937", "test": "Potentiation of olaparid-induced antileukemic activity against human U-937 cells at 4.3 uM in presence of bone-marrow derived stromal cell-conditioned medium", "format": "functional, cell-based"}, "MOLM-14 [39]": {"tested_on": "MOLM-14", "test": "Potentiation of quizartinib-induced antileukemic activity against human MOLM-14 cells at 4.3 uM in presence of bone-marrow derived stromal cell-conditioned medium", "format": "functional, cell-based"}, "U-937 [40]": {"tested_on": "U-937", "test": "Potentiation of niotinib-induced antileukemic activity against human U-937 cells at 4.3 uM in presence of bone-marrow derived stromal cell-conditioned medium", "format": "functional, cell-based"}, "MOLM-14 [41]": {"tested_on": "MOLM-14", "test": "Potentiation of metformin -induced antileukemic activity against human MOLM-14 cells at 4.3 uM in presence of bone-marrow derived stromal cell-conditioned medium", "format": "functional, cell-based"}}, "note": "The source made the active and inactive calls. The rule behind the calls is not given here."}
{"smiles": "CC(=O)N1CCc2c(sc3nc(SCC(=O)Nc4cccnc4C)n(Cc4ccco4)c(=O)c23)C1", "values": [{"measurement": "Activity", "setting": "MOLM-14 [1]", "value": "inactive"}, {"measurement": "Activity", "setting": "U-937 [2]", "value": "inactive"}, {"measurement": "Activity", "setting": "MOLM-14 [3]", "value": "inactive"}, {"measurement": "Activity", "setting": "MOLM-14 [4]", "value": "inactive"}, {"measurement": "Activity", "setting": "CCRF-CEM [5]", "value": "inactive"}, {"measurement": "Activity", "setting": "U-937 [6]", "value": "inactive"}, {"measurement": "EC50", "setting": "K562", "value": "> 5", "unit": "µM"}, {"measurement": "Activity", "setting": "U-937 [7]", "value": "inactive"}, {"measurement": "inhibition", "setting": "[8]", "value": 37, "unit": "%"}, {"measurement": "Activity", "setting": "MOLM-14 [9]", "value": "inactive"}, {"measurement": "Activity", "setting": "MOLM-14 [10]", "value": "inactive"}, {"measurement": "Activity", "setting": "U-937 [11]", "value": "inactive"}, {"measurement": "EC50", "setting": "CCRF-CEM [12]", "value": "> 5", "unit": "µM"}, {"measurement": "Activity", "setting": "MOLM-14 [13]", "value": "inactive"}, {"measurement": "Activity", "setting": "MOLM-14 [14]", "value": "inactive"}, {"measurement": "Activity", "setting": "MOLM-14 [15]", "value": "inactive"}, {"measurement": "Activity", "setting": "U-937 [16]", "value": "inactive"}, {"measurement": "Activity", "setting": "MOLM-14 [17]", "value": "inactive"}, {"measurement": "Activity", "setting": "MOLM-14 [18]", "value": "inactive"}, {"measurement": "Activity", "setting": "MOLM-14 [19]", "value": "inactive"}, {"measurement": "Activity", "setting": "U-937 [20]", "value": "inactive"}, {"measurement": "Activity", "setting": "CCRF-CEM [21]", "value": "inactive"}, {"measurement": "Activity", "setting": "U-937 [22]", "value": "inactive"}, {"measurement": "Activity", "setting": "CCRF-CEM [23]", "value": "inactive"}, {"measurement": "Activity", "setting": "CCRF-CEM [24]", "value": "inactive"}, {"measurement": "IC50", "setting": "[25]", "value": 9.5, "unit": "µM"}, {"measurement": "Activity", "setting": "MOLM-14 [26]", "value": "inactive"}, {"measurement": "Activity", "setting": "U-937 [27]", "value": "inactive"}, {"measurement": "Activity", "setting": "U-937 [28]", "value": "inactive"}, {"measurement": "IC50", "setting": "[29]", "value": 0.13, "unit": "µM"}, {"measurement": "IC50", "setting": "[30]", "value": 0.071, "unit": "µM"}, {"measurement": "Activity", "setting": "CCRF-CEM [31]", "value": "inactive"}, {"measurement": "Activity", "setting": "MOLM-14 [32]", "value": "inactive"}, {"measurement": "Activity", "setting": "U-937 [33]", "value": "inactive"}, {"measurement": "Activity", "setting": "U-937 [34]", "value": "inactive"}, {"measurement": "Activity", "setting": "U-937 [35]", "value": "inactive"}, {"measurement": "Activity", "setting": "U-937 [36]", "value": "inactive"}, {"measurement": "Activity", "setting": "MOLM-14 [37]", "value": "inactive"}, {"measurement": "Activity", "setting": "U-937 [38]", "value": "inactive"}, {"measurement": "Activity", "setting": "MOLM-14 [39]", "value": "inactive"}, {"measurement": "Activity", "setting": "U-937 [40]", "value": "inactive"}, {"measurement": "Activity", "setting": "MOLM-14 [41]", "value": "inactive"}]}
